Drawing on ChEMBL document CHEMBL1132250, “Synthesis of classical and a nonclassical 2-amino-4-oxo-6-methyl-5-substituted pyrrolo[2,3-d]pyrimidine antifolate inhibitors of thymidylate synthase” (J Med Chem, 1999), this text covers IC50 for five compounds.

In test [1] the target is T1, Thymidylate synthase (Lactobacillus casei, UniProt P00469).
T1 sequence (P00469 whole entry): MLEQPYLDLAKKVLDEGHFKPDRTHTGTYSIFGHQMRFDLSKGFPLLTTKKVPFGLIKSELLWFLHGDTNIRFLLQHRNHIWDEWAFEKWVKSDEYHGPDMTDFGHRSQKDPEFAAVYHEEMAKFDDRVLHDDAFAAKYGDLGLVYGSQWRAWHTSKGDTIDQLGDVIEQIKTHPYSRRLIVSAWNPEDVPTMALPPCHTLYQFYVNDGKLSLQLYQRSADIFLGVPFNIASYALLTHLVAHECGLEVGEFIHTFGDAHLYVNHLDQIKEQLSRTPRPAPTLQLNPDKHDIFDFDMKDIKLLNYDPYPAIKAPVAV
The test can be described thus: Compound was evaluated for the inhibition at a given concentration against Lactobacillus casei Thymidylate synthase. The arrangement: species or system Lacticaseibacillus casei.

Test [2] has as its target T2, Thymidylate synthase (Homo sapiens, UniProt P04818). The test can be described thus: Compound was evaluated for the inhibition at a given concentration against recombinant human Thymidylate synthase.
Test [3] concerns the target T1, Thymidylate synthase. The test can be described thus: Compound was evaluated for the inhibition at a given concentration against Lactobacillus casei TS. The arrangement: species or system Lacticaseibacillus casei.
For test [4], the target named is T2, Thymidylate synthase. The test can be described thus: Compound was evaluated for the inhibition at a given concentration against recombinant human TS.

T2 sequence (P04818 whole entry): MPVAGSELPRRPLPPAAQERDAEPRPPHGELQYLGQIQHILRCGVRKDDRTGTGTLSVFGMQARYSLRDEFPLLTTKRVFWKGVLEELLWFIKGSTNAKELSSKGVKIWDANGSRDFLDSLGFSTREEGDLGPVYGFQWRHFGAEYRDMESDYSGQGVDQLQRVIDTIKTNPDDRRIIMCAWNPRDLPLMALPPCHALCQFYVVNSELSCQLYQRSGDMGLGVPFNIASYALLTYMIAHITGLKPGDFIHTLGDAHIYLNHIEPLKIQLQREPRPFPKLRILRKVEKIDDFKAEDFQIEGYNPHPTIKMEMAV

On Thymidylate synthase [1], `Cc1[nH]c2nc(N)[nH]c(=O)c2c1Sc1ccc(C(=O)NC(CCC(=O)O)C(=O)O)cc1` (configuration not stated) showed an IC50 of 0.021 µM. Compound `Cc1[nH]c2nc(N)[nH]c(=O)c2c1CNCc1ccc(C(=O)N[C@H](CCC(=O)O)C(=O)O)cc1` came in with an IC50 against Thymidylate synthase [1] of 360 µM.

In the case of `Cc1[nH]c2nc(N)nc(O)c2c1CSc1ccncc1`, the IC50 at Thymidylate synthase [2] is over 25 µM; at Thymidylate synthase [1], over 26 µM. As for `Cc1[nH]c2nc(N)nc(O)c2c1CNc1ccc(C(=O)N[C@H](CCC(=O)O)C(=O)O)cc1`, the IC50 on Thymidylate synthase [3] and at Thymidylate synthase [4] was 180 µM each time.

`C#CCN(Cc1c(C)[nH]c2nc(N)nc(O)c12)c1ccc(C(=O)N[C@H](CCC(=O)O)C(=O)O)cc1`: the IC50 at Thymidylate synthase [1] was determined as 90 µM.
